Here are results for 8 molecules from patent publication US10450288B2, “Hydroxy formamide derivatives and their use” (GLAXOSMITHKLINE INTELLECTUAL PROPERTY (NO.2) LIMITED, priority 2014, dated 2019).

For assay [1], the system named is human cardiac fibroblasts. Put plainly: Cell-based inhibition assay of mature collagen deposition (immunostaining). The note with it: Cardiac fibroblast, read-out: pIC50, mature collagen cellular inhibition assay (converted). On the procedure:
Cell-Based Inhibition Assay of Generation of Procollagen I C-Terminal Propeptide (PICP) and Mature Collagen:
An adaptation of the collagen deposition assay described by Chen, C. Z. C., et al., British Journal of Pharmacology, 2009, 158, 1196-1209 was used to examine effect of compounds on procollagen I processing and collagen deposition. In the adapted assay, human cardiac fibroblasts were utilized. Processing of procollagen I was determined by a PICP ELISA assay and deposition of mature collagen was determined by immunostaining.
Human cardiac fibroblasts were cultured and maintained until passage 6 in FGM-3 media (Lonza, #CC-3132) in a 37° C. humidified incubator with 5% CO2. They were then seeded in 96-well black wall, clear bottom plates at 10,000 to 15,000 cells per well in eagle's minimum essential media (EMEM, ATCC #30-2003) containing 10% fetal bovine serum (FBS, Life Technologies #10082147), 1% Glutamax (Life Technologies #35050061) and 1% Penicillin and Streptomycin (Life Technologies #15070063). These cultures were placed in 37° C. incubator. The next day, media were removed by aspiration and cells were rinsed with phosphate buffered saline. Crowding media (also called ficoll media) was prepared by adding 112.5 mg/ml of ficoll70 and 75 mg/ml ficoll400 (GE healthcare #17-0310-10 and 17-0300-10, respectively), 100 μM ascorbic acid, 1% Glutamax and 1% Penicillin and Streptomycin to EMEM media. Test compounds (dissolved in DMSO) were diluted into crowding media and then added to the cells. Final concentration of DMSO in crowding media was less than 0.3%. Cells were treated for 24 to 48 hr in a 37° C. incubator. At the end of the treatment period, cell media were collected. The level of PICP in the media were determined by a PICP ELISA assay (Quidel #8003) following the manufacturer's protocol. Potencies of test compounds were calculated by fitting PICP levels, relative to untreated controls, to log (inhibitor) vs. response equation using Graphpad Prism software 5.0 and expressed as pIC50.
For some compounds, deposition of mature collagen was measured by immunostaining in addition to PICP levels. At the end of the treatment period, cells on culture plate were fixed with 100% methanol (prechilled to −20° C.) for 10 min. Then the cells were immunostained with mouse anti-mature collagen I antibody (1:500 dilution, Sigma#C2456), anti-mouse secondary antibody Alexa647 (1:500 dilution, Invitrogen#A21236) and Hoechst (for nuclei, 2 μg/ml, Invitrogen#H3596). Fluorescent image acquisition was done using the Operetta High Content Imaging system (Perkin Elmer). For each image field, the intensity of mature collagen staining was normalized with the number of nuclei. Normalized collagen levels were used to calculate the potency of test compounds with Graphpad Prism software, as described above.

Assay [2] has as its system human cardiac fibroblasts. The assay can be described thus: Cell-based inhibition assay of generation of procollagen I C-terminal propeptide (PICP), PICP ELISA. The note with it: Cardiac fibroblast, read-out: pIC50, PICP cellular inhibition assay (converted). In a few lines:
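Cardiac fibroblasts (passage ≤6) treated 24–48 h at 37 °C with compounds in ficoll crowding medium containing 100 μM ascorbic acid, DMSO <0.3%. PICP secreted into the medium was quantified by ELISA, normalised to untreated controls and fitted to log(inhibitor)–response to give pIC50.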

Where [3] appears, read: human cardiac fibroblasts, crowding media, 24 to 48 hr, collagen I immunostaining normalized to nuclei.
[4] abbreviates: human cardiac fibroblasts, crowding media, 24 to 48 hr, PICP ELISA of media.

With `CCCCC[C@@H](C(=O)NCNC(=O)c1ccc(-c2cccc(C3(C(=O)O)CC3)c2)o1)[C@@H](CC)N(O)C=O` [Example 80, 1-(3-(5-((((R)-2-((R)-1-(N-hydroxyformamido)propyl)heptanamido)methyl)carbamoyl)furan-2-yl)phenyl) cyclopropanecarboxylic acid], the IC50 is below 1000 nM in assay [1] (setting [3]) and below 3.98 µM in assay [2] (setting [4]).
On the same counts, the results for `CCCCC[C@@H](C(=O)NCNC(=O)c1ccc(-c2cc(O)c(C(=O)O)c(OCC)c2)o1)[C@@H](CC)N(O)C=O` [Example 128, 2-ethoxy-6-hydroxy-4-(5-((((R)-2-((R)-1-(N-hydroxyformamido)propyl)heptanamido)methyl)carbamoyl)furan-2-yl)benzoic acid] are below 1000 nM and below 3.98 µM.
On the same counts, the results for `CCCCC[C@@H](C(=O)NCNC(=O)c1ccc(-c2ccc(C(=O)N[C@H](CC(=O)O)C(=O)O)c(OCC)c2)o1)[C@@H](CC)N(O)C=O` [Example 132, (R)-2-(2-ethoxy-4-(5-((((R)-2-((R)-1-(N-hydroxyformamido)propyl)heptanamido)methyl)carbamoyl)furan-2-yl)benzamido) succinic acid] are below 1000 nM and below 3.98 µM.
Turning to `CCOc1cc(-c2ccc(C(=O)NCNC(=O)[C@H](CCc3ccccc3)[C@@H](CC)N(O)C=O)o2)ccc1C(=O)N[C@@H](CC(=O)O)C(=O)O` [Example 127, (S)-2-(2-ethoxy-4-(5-((((2R,3R)-3-(N-hydroxyformamido)-2-phenethylpentanamido)methyl)carbamoyl)furan-2-yl)benzamido) succinic acid], the IC50 in assay [1] (setting [3]) is below 1000 nM; in assay [2] (setting [4]), below 3.98 µM.
With `CCCCC[C@H](CN(O)C=O)C(=O)NCNC(=O)c1ccc(-c2ccccc2)o1` [Example 5, (R)-N-((2-((N-hydroxyformamido)methyl)heptanamido)methyl)-5-phenylfuran-2-carboxamide], the figures for the IC50 in assay [1] (Homo sapiens) and in assay [2] (Homo sapiens) were below 1000 nM and below 3.98 µM, respectively.
Take `CCCCC[C@@H](C(=O)NCNC(=O)c1ccc(-c2cc(OCC)cc(C(=O)N[C@@H](CCC(=O)O)C(=O)O)c2)o1)[C@@H](CC)N(O)C=O` [Example 93, (S)-2-(3-ethoxy-5-(5-((((R)-2-((R)-1-(N-hydroxy-formamido)propyl)heptanamido)methyl)carbamoyl)furan-2-yl)benzamido) pentanedioic acid]: the IC50 in assay [1] (setting [3]) was below 1000 nM; in assay [2] (setting [4]), below 3.98 µM.
Regarding `CCCCC[C@@H](C(=O)NCNC(=O)c1ccc(-c2ccc(CC(=O)N[C@@H](CC(=O)O)C(=O)O)c(OCC)c2)o1)[C@@H](CC)N(O)C=O` [Example 75, (S)-2-(2-(2-ethoxy-4-(5-((((R)-2-((R)-1-(N-hydroxyformamido)propyl)heptanamido)methyl)carbamoyl)furan-2-yl)phenyl)acetamido) succinic acid], the IC50 in assay [1] (setting [3]) was below 1000 nM; in assay [2] (setting [4]), below 3.98 µM.
The like results for `CCCCC[C@@H](C(=O)NCNC(=O)c1ccc(-c2cc(OCC)cc(C(=O)O)c2)o1)[C@@H](CC)N(O)C=O` [Example 39, 3-ethoxy-5-(5-((((R)-2-((R)-1-(N-hydroxyformamido)propyl)heptanamido)methyl)carbamoyl)furan-2-yl)benzoic acid] were, in that order, below 1000 nM and below 3.98 µM.
